The values below come from patent US20240124427A1, “HYDROXYHETEROCYCLOALKANE-CARBAMOYL DERIVATIVES” (Idorsia Pharmaceuticals Ltd, priority 2021, published 2024).

SMILES strings stand for the structures.

Chain of human Gal-3 (hGal-3) (P17931 whole entry): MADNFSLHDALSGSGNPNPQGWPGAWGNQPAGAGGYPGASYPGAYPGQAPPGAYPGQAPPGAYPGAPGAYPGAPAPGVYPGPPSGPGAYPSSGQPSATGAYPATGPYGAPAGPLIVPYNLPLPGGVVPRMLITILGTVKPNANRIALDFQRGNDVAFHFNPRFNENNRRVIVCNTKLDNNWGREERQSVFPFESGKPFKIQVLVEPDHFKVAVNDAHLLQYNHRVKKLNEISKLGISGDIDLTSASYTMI

The assay addresses human Gal-3 (hGal-3) (Homo sapiens (Human), UniProt P17931). Put plainly: Competitive binding assay: biotinylated hGal-3 binding to microplate-adsorbed asialofetuin (ASF). Conditions: Activity on hGal-3; mean values of several measurements; mixture of diastereomers measured where not separated. On the procedure: The inhibitory activity of compounds is determined in competitive binding assays. This spectrophotometric assay measures the binding of biotinylated human Gal-3 (hGal-3) or human Gal-1 (hGal-1), respectively, to a microplate-adsorbed glycoprotein, asialofetuin (ASF) (Proc Natl Acad Sci USA. 2013 Mar 26;110(13):5052-7.). Alternatively, and preferably, a human Gal-1 version in which all six cysteines are substituted by serines may be used.
Briefly, compounds are serially diluted in DMSO (working dilutions).
Plates are incubated for 3 hours at 4° C., then washed with cold assay buffer (3×50 uL), incubated for 1 hour with 25 μL/well of a streptavidin-peroxidase solution (diluted in assay buffer to 80 ng/mL) at 4° C., followed by further washing steps with assay buffer (3×50 uL). Finally, 25 μL/well of ABTS substrate is added.
The calculated IC50 values may fluctuate depending on the daily assay performance. Fluctuations of this kind are known to those skilled in the art. IC50 values from several measurements are given as mean values.
As to `CO[C@@H]1[C@@H](n2cc(-c3cc(F)c(F)c(F)c3)nn2)[C@@H](O)[C@@H](CO)O[C@H]1C(=O)N(c1cc(C)cc(Br)c1)[C@@H]1CCOC[C@H]1O` [Example 104, (2R,3R,4S,5R,6R)-N-(3-bromo-5-methylphenyl)-5-hydroxy-6-(hydroxymethyl)-N-((3S,4R)-3-hydroxytetrahydro-2H-pyran-4-yl)-3-methoxy-4-(4-(3,4,5-trifluorophenyl)-1H-1,2,3-triazol-1-yl)tetrahydro-2H-pyran-2-carboxamide], the IC50 (commonly the concentration at which inhibition is half-maximal) turned out to be 0.256 µM.

Take `CO[C@@H]1[C@@H](n2cc(-c3cc(F)c(F)c(F)c3)nn2)[C@@H](O)[C@@H](CO)O[C@H]1C(=O)N(c1cc(Cl)cc(Cl)c1)[C@H]1CNCC[C@@H]1O` [Example 113, (2R,3R,4S,5R,6R)-N-(3,5-dichlorophenyl)-5-hydroxy-6-(hydroxymethyl)-N-((3S,4S)-4-hydroxypiperidin-3-yl)-3-methoxy-4-(4-(3,4,5-trifluorophenyl)-1H-1,2,3-triazol-1-yl)tetrahydro-2H-pyran-2-carboxamide]: the 50% inhibitory concentration (IC50) came to 0.013 µM.

With `CO[C@@H]1[C@@H](n2cc(-c3cc(F)c(F)c(F)c3)nn2)[C@@H](O)[C@@H](CO)O[C@H]1C(=O)N(c1cc(Cl)cc(Cl)c1)[C@H]1CNC[C@@H]1O` [Example 59, (2R,3R,4S,5R,6R)-N-(3,5-dichlorophenyl)-5-hydroxy-6-(hydroxymethyl)-N-((3S,4S)-4-hydroxypyrrolidin-3-yl)-3-methoxy-4-(4-(3,4,5-trifluorophenyl)-1H-1,2,3-triazol-1-yl)tetrahydro-2H-pyran-2-carboxamide], the 50% inhibitory concentration (IC50) amounted to 0.023 µM.

On to `CO[C@@H]1[C@@H](n2cc(-c3cc(F)c(C)c(F)c3)nn2)[C@@H](O)[C@@H](CO)O[C@H]1C(=O)N(c1cc(Br)cc(Br)c1)[C@@H]1CN(C(C)=O)C[C@H]1O` [Example 81, (2R,3R,4S,5R,6R)-N-((3R,4R)-1-acetyl-4-hydroxypyrrolidin-3-yl)-N-(3,5-dibromophenyl)-4-(4-(3,5-difluoro-4-methylphenyl)-1H-1,2,3-triazol-1-yl)-5-hydroxy-6-(hydroxymethyl)-3-methoxytetrahydro-2H-pyran-2-carboxamide], for which the IC50 is 0.04 µM.

For the compound `CO[C@@H]1[C@@H](n2cc(-c3cc(F)c(F)c(F)c3)nn2)[C@@H](O)[C@@H](CO)O[C@H]1C(=O)N(c1cc(Br)cc(Br)c1)[C@H]1COC[C@@H]1O` [Example 6, (2R,3R,4S,5R,6R)-N-(3,5-dibromophenyl)-5-hydroxy-6-(hydroxymethyl)-N-((3S,4R)-4-hydroxytetrahydrofuran-3-yl)-3-methoxy-4-(4-(3,4,5-trifluorophenyl)-1H-1,2,3-triazol-1-yl)tetrahydro-2H-pyran-2-carboxamide], the IC50 turned out to be 0.053 µM.

Consider `CO[C@@H]1[C@@H](n2cc(-c3ccc(Br)c(F)c3F)nn2)[C@@H](O)[C@@H](CO)O[C@H]1C(=O)N(c1cc(Br)cc(C#N)c1)[C@H]1COC[C@@H]1O` [Example 13, (2R,3R,4S,5R,6R)-4-(4-(4-bromo-2,3-difluorophenyl)-1H-1,2,3-triazol-1-yl)-N-(3-bromo-5-cyanophenyl)-5-hydroxy-6-(hydroxymethyl)-N-((3S,4R)-4-hydroxytetrahydrofuran-3-yl)-3-methoxytetrahydro-2H-pyran-2-carboxamide], for which the IC50 amounted to 0.015 µM.

In the case of `CO[C@@H]1[C@@H](n2cc(-c3cc(F)c(F)c(F)c3)nn2)[C@@H](O)[C@@H](CO)O[C@H]1C(=O)N(c1cc(Cl)cc(Cl)c1)[C@@H]1CN(C(C)=O)C[C@H]1O` [Example 77, (2R,3R,4S,5R,6R)-N-((3R,4R)-1-acetyl-4-hydroxypyrrolidin-3-yl)-N-(3,5-dichlorophenyl)-5-hydroxy-6-(hydroxymethyl)-3-methoxy-4-(4-(3,4,5-trifluorophenyl)-1H-1,2,3-triazol-1-yl)tetrahydro-2H-pyran-2-carboxamide], the concentration for half-maximal inhibition (IC50) was determined as 0.08 µM.

`CO[C@@H]1[C@@H](n2cc(-c3ccc(Br)c(F)c3F)nn2)[C@@H](O)[C@@H](CO)O[C@H]1C(=O)N(c1cc(Cl)cc(Cl)c1)[C@H]1COC[C@@H]1O` [Example 12, (2R,3R,4S,5R,6R)-4-(4-(4-bromo-2,3-difluorophenyl)-1H-1,2,3-triazol-1-yl)-N-(3,5-dichlorophenyl)-5-hydroxy-6-(hydroxymethyl)-N-((3S,4R)-4-hydroxytetrahydrofuran-3-yl)-3-methoxytetrahydro-2H-pyran-2-carboxamide]: the IC50 is 0.047 µM.

Regarding `CO[C@@H]1[C@@H](n2cc(-c3cc(F)c(F)c(F)c3)nn2)[C@@H](O)[C@@H](CO)O[C@H]1C(=O)N(c1cccc(I)c1)[C@H]1COC[C@@H]1O` [Example 3, (2R,3R,4S,5R,6R)-5-hydroxy-6-(hydroxymethyl)-N-((3S,4R)-4-hydroxytetrahydrofuran-3-yl)-N-(3-iodophenyl)-3-methoxy-4-(4-(3,4,5-trifluorophenyl)-1H-1,2,3-triazol-1-yl)tetrahydro-2H-pyran-2-carboxamide], the half-maximal inhibitory concentration (IC50) was 0.056 µM.

In the case of `CO[C@@H]1[C@@H](n2cc(-c3cc(F)c(F)c(F)c3)nn2)[C@@H](O)[C@@H](CO)O[C@H]1C(=O)N(c1cc(C)cc(Br)c1)[C@@H]1COC[C@H]1O` [Example 37, (2R,3R,4S,5R,6R)-N-(3-bromo-5-methylphenyl)-5-hydroxy-6-(hydroxymethyl)-N-((3R,4S)-4-hydroxytetrahydrofuran-3-yl)-3-methoxy-4-(4-(3,4,5-trifluorophenyl)-1H-1,2,3-triazol-1-yl)tetrahydro-2H-pyran-2-carboxamide], the IC50 worked out at 0.186 µM.

For the compound `CO[C@@H]1[C@@H](n2cc(-c3cc(F)c(F)c(F)c3)nn2)[C@@H](O)[C@@H](CO)O[C@H]1C(=O)N(c1cc(Br)cc(C#N)c1)[C@@H]1CN(C=O)C[C@H]1O` [Example 93, (2R,3R,4S,5R,6R)-N-(3-bromo-5-cyanophenyl)-N-((3R,4R)-1-formyl-4-hydroxypyrrolidin-3-yl)-5-hydroxy-6-(hydroxymethyl)-3-methoxy-4-(4-(3,4,5-trifluorophenyl)-1H-1,2,3-triazol-1-yl)tetrahydro-2H-pyran-2-carboxamide], the half-maximal inhibitory concentration (IC50) was determined as 0.08 µM.

For the compound `CO[C@@H]1[C@@H](n2cc(-c3cc(F)c(Cl)c(F)c3)nn2)[C@@H](O)[C@@H](CO)O[C@H]1C(=O)N(c1cc(C)cc(Br)c1)[C@H]1COC[C@@H]1O` [Example 25, (2R,3R,4S,5R,6R)-N-(3-bromo-5-methylphenyl)-4-(4-(4-chloro-3,5-difluorophenyl)-1H-1,2,3-triazol-1-yl)-5-hydroxy-6-(hydroxymethyl)-N-((3S,4R)-4-hydroxytetrahydrofuran-3-yl)-3-methoxytetrahydro-2H-pyran-2-carboxamide], the IC50 is 0.031 µM.

As to `CO[C@@H]1[C@@H](n2cc(-c3cc(F)c(F)c(F)c3)nn2)[C@@H](O)[C@@H](CO)O[C@H]1C(=O)N(c1cccc(Cl)c1)[C@H]1COC[C@@H]1O` [Example 1, (2R,3R,4S,5R,6R)-N-(3-chlorophenyl)-5-hydroxy-6-(hydroxymethyl)-N-((3S,4R)-4-hydroxytetrahydrofuran-3-yl)-3-methoxy-4-(4-(3,4,5-trifluorophenyl)-1H-1,2,3-triazol-1-yl)tetrahydro-2H-pyran-2-carboxamide], the 50% inhibitory concentration (IC50) was 0.102 µM.

Turning to `CO[C@@H]1[C@@H](n2cc(-c3ccc(Cl)c(Cl)c3)nn2)[C@@H](O)[C@@H](CO)O[C@H]1C(=O)N(c1cc(C)cc(Br)c1)[C@@H]1COC[C@H]1O` [Example 58, (2R,3R,4S,5R,6R)-N-(3-bromo-5-methylphenyl)-4-(4-(3,4-dichlorophenyl)-1H-1,2,3-triazol-1-yl)-5-hydroxy-6-(hydroxymethyl)-N-((3R,4S)-4-hydroxytetrahydrofuran-3-yl)-3-methoxytetrahydro-2H-pyran-2-carboxamide], the half-inhibitory concentration (IC50) was 0.175 µM.

For the compound `CO[C@@H]1[C@@H](n2cc(-c3cc(F)c(C)c(F)c3)nn2)[C@@H](O)[C@@H](CO)O[C@H]1C(=O)N(c1cc(Cl)cc(Cl)c1)[C@@H]1COC[C@H]1O` [Example 44, (2R,3R,4S,5R,6R)-N-(3,5-dichlorophenyl)-4-(4-(3,5-difluoro-4-methylphenyl)-1H-1,2,3-triazol-1-yl)-5-hydroxy-6-(hydroxymethyl)-N-((3R,4S)-4-hydroxytetrahydrofuran-3-yl)-3-methoxytetrahydro-2H-pyran-2-carboxamide], the 50% inhibitory concentration (IC50) stood at 0.081 µM.

Take `CCN1C[C@H](O)[C@@H](N(C(=O)[C@@H]2O[C@H](CO)[C@H](O)[C@H](n3cc(-c4cc(F)c(F)c(F)c4)nn3)[C@H]2OC)c2cc(C)cc(Br)c2)C1` [Example 97, (2R,3R,4S,5R,6R)-N-(3-bromo-5-methylphenyl)-N-((3S,4S)-1-ethyl-4-hydroxypyrrolidin-3-yl)-5-hydroxy-6-(hydroxymethyl)-3-methoxy-4-(4-(3,4,5-trifluorophenyl)-1H-1,2,3-triazol-1-yl)tetrahydro-2H-pyran-2-carboxamide]: the concentration for half-maximal inhibition (IC50) came to 0.024 µM.

On to `CO[C@@H]1[C@@H](n2cc(-c3cc(F)c(Cl)c(F)c3)nn2)[C@@H](O)[C@@H](CO)O[C@H]1C(=O)N(c1cc(C)cc(Br)c1)[C@@H]1COC[C@H]1O` [Example 54, (2R,3R,4S,5R,6R)-N-(3-bromo-5-methylphenyl)-4-(4-(4-chloro-3,5-difluorophenyl)-1H-1,2,3-triazol-1-yl)-5-hydroxy-6-(hydroxymethyl)-N-((3R,4S)-4-hydroxytetrahydrofuran-3-yl)-3-methoxytetrahydro-2H-pyran-2-carboxamide], for which the IC50 is 0.089 µM.
